Data reported in patent US20120071475A1, “UREA DERIVATIVES HAVING PI3K-INHIBITING ACTIVITY” (SHIONOGI & CO., LTD., priority 2009, published 2012).

Tests used:
PI3Kγ = PI3Kγ (Homo sapiens, UniProt P48736); assay: PI3Kγ inhibitory activity (PI3-kinase HTRF assay, inhibition ratio); format: biochemical; conditions: 0.5 h, compound at 10 μmol/L; read-out: PI3Kg Inhibition Ratio % (10 μM)
Outline: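 Compound at 10 μmol/L preincubated 10 min with PI3Kγ and PIP2 substrate, then reacted with ATP for 30 minutes at room temperature; the compound, substrate and ATP figures as printed (40 μmol/L each) are solution concentrations. HTRF 665/620 nm ratio read after 18 hours. Inhibition ratio calculated against no-compound (100%) and no-enzyme (0%) controls.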

AKT phosphorylation = AKT phosphorylation inhibitory activity in MCP-1 stimulated THP-1 cells (sandwich ELISA); format: cell-based, Human; conditions: Homo sapiens, compound at 1 μmol/L, MCP-1 stimulation, read-out: AKT phosphorylation inhibition ratio
Description: (1) The AKT phosphorylation inhibitory activity of a compound was evaluated according to the following procedure. (2) Human monocyte-like cell line THP-1 was washed with RPMI-1640 media, incubated in the presence of 5% CO2 at 37° C. for 3 hours, washed with Hank's balanced salt solution (HBSS), adjusted to a cell concentration of 6.7×10^6/mL, and then used in an experiment. (3) 30 μL of the cell suspension and 60 μL of each compound solution containing 0.2% DMSO/HBSS were mixed and then preincubated at 37° C. for 5 minutes. 30 μL of HBSS containing 1.2 μg/mL of MCP-1 was added thereto and then incubated for 60 seconds at 37° C. (4) 30 μL of a cell lysate (the final concentrations: 20 mmol/L Tris-HCl (pH 7.5), 150 mmol/L NaCl, 1 mmol/L EDTA, 1 mmol/L EDTA, 1% Triton X-100, 2.5 mmol/L sodium pyrophosphate, 1 mmol/L β-glycerophosphate, 1 mmol/L Na3VO4, 1 μg/ml leupeptin, 50 nmol/L APMSF) was added thereto to lyse cells. (5) The amount of AKT phosphorylation in the cell solution was measured by sandwich ELISA method using anti-Phospho-Akt (Ser473) antibody and anti-AKT1 antibody. (6) Anti-Phospho-Akt (Ser473) antibodies or anti-AKT1 antibodies were immobilized onto the solid phase of a micro well plate. The prepared cell lysate was added to the micro well plate, incubated, and then washed with ELISA wash solution. (7) An anti-AKT1 antibody or anti-Phospho-Akt (Ser473) antibody, which forms a counterpart to an antibody immobilized on the solid phase, was added thereto, incubated, washed similarly, and then reacted with an HRP-labeled anti-mouse IgG antibody. (8) After incubating for 30 minutes and then washing similarly, 100 μL of TMB (3,3′,5,5″-tetramethylbenzidine) was added thereto, followed by reacting for 30 minutes. (9) 100 μL of stop solution was added to quench the color reaction, and then the absorbance at 450 nm was measured. (10) The amount of AKT phosphorylation in a sample in the absence of a compound was defined as 100% activity, and the amount of AKT phosphorylation in a sample in the absence of MCP-1 was defined as 0% activity to calculate an inhibition ratio of each compound. The measurement was performed for a 1 μmol/L solution of each compound.

hERG channel (IKr) = biological target: T1, hERG channel (IKr) (Homo sapiens, UniProt Q12809); assay: hERG test (whole-cell patch-clamp, IKr in HEK293 cells); format: cell-based; conditions: human, HEK293 cells expressing hERG channel, pH 7.4, inhibition of maximum tail current (IKr), compound 1 μM
T1 construct: expressed in transfected cells; host or cells: HEK293
Outline: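 hERG-expressing HEK293 cells, automated whole-cell patch clamp: hold −80 mV, +50 mV for 2 s, then −50 mV for 2 s to record IKr tail current. Compound in extracellular solution (pH 7.4) for 10 min at room temperature; inhibition of maximum tail current calculated versus pre-application and compared with 0.1% DMSO vehicle.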

[1] = tested on: CYP1A2, CYP2C9, CYP2C19, CYP2D6 and CYP3A4 (one value for the five species); assay: CYP inhibition test, five CYP species together (5CYPs_IC50; pooled human liver microsome); format: in vitro ADME; conditions: human, microsomes
Text: O-de-ethylation of 7-ethoxyresorufin (CYP1A2), methyl-hydroxylation of tolbutamide (CYP2C9), 4′-hydroxylation of mephenyloin (CYP2C19), O-demethylation of dextromethorphan (CYP2D6), and hydroxylation of terfenadine (CYP3A4), which are typical substrate for metabolic reactions of human main CYP5 molecular species (CYP1A2, 2C9, 2C19, 2D6, and 3A4), were adopted as indexes.
The reaction conditions are as follows: substrate: 0.5 μmol/L of ethoxyresorufin (CYP1A2), 100 μmol/L of tolbutamide (CYP2C9), 50 μmol/L of S-mephenyloin (CYP2C19), 5 μmol/L of dextromethorphan (CYP2D6), and 1 μmol/L of terfenadine (CYP3A4); reaction time; 15 minutes; reaction temperature: 37° C.; enzyme: pooled human liver microsome 0.2 mg protein/mL; test drug concentration: 1, 5, 10, and 20 μmol/L (4 points).
In a 96-well plate, as a reaction solution, five kinds of substrates, a human liver microsome, and a test drug were added to 50 mmol/L Hepes buffer solution in the aforementioned ratio. A coenzyme NADPH was added to start a metabolic reaction, which is an index. After reacting at 37° C. for 15 minutes, a solution of methanol/acetonitrile (1/1 (v/v)) was added to quench the reaction. After centrifugation at 3000 rpm for 15 minutes, resorufin (CYP1A2 metabolite) in the supernatant was quantitated with a fluorescence multilabel counter, and hydroxylated tolbutamide (CYP2C9 metabolite), 4′-hydroxylated mephenyloin (CYP2C19 metabolite), […], terfenadine in alcohol form (CYP3A4 metabolite) were quantitated with LC/MS/MS.
The case wherein only DMSO (a solvent which dissolved a drug) was added to a reaction system was defined as a control (100%). When a test drug solution was added, the remaining activity (%) at each concentration was calculated, and then IC50 was calculated with a concentration and an inhibition ratio by an inverse estimation using a logistic model.

[2] = Metabolic stability test (pooled human liver microsome); format: in vitro ADME; conditions: percentage of test compound remained after 30 minutes, pooled human liver microsome 0.5 mg protein/mL, 1 mmol/L NADPH, 37° C., compound 0.5 μM
Outline: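 Pooled human liver microsomes (0.5 mg protein/mL) incubated with compound and 1 mmol/L NADPH at 37° C. in pH 7.4 Tris buffer for 0 or 30 min. Parent quantified by LC/MS/MS after methanol/acetonitrile quench; value is % remaining at 30 min versus 0 min.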

CYP3A4 = biological target: T2, CYP3A4 (Homo sapiens, UniProt P08684); assay: CYP3A4 fluorescence MBI test; format: in vitro ADME; conditions: difference in IC50 with 0 or 30 minutes pre-reaction; CYP3A4 expressed in E. coli, substrate 7-BFC
T2 construct: host or cells: E. coli
Outline: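 E. coli-expressed CYP3A4 debenzylating 5.6 μmol/L 7-BFC to fluorescent 7-HFC (Ex 420/Em 535 nm) in K-Pi pH 7.4 at 25° C, 15 min reaction. NADPH pre-incubation of 0 or 30 min, with 10-fold dilution before reaction. IC50 from 0.625–20 μmol/L (6 points); (+) for an IC50 shift ≥5 μmol/L, (−) for ≤3 μmol/L.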

T1 sequence (Q12809 whole entry): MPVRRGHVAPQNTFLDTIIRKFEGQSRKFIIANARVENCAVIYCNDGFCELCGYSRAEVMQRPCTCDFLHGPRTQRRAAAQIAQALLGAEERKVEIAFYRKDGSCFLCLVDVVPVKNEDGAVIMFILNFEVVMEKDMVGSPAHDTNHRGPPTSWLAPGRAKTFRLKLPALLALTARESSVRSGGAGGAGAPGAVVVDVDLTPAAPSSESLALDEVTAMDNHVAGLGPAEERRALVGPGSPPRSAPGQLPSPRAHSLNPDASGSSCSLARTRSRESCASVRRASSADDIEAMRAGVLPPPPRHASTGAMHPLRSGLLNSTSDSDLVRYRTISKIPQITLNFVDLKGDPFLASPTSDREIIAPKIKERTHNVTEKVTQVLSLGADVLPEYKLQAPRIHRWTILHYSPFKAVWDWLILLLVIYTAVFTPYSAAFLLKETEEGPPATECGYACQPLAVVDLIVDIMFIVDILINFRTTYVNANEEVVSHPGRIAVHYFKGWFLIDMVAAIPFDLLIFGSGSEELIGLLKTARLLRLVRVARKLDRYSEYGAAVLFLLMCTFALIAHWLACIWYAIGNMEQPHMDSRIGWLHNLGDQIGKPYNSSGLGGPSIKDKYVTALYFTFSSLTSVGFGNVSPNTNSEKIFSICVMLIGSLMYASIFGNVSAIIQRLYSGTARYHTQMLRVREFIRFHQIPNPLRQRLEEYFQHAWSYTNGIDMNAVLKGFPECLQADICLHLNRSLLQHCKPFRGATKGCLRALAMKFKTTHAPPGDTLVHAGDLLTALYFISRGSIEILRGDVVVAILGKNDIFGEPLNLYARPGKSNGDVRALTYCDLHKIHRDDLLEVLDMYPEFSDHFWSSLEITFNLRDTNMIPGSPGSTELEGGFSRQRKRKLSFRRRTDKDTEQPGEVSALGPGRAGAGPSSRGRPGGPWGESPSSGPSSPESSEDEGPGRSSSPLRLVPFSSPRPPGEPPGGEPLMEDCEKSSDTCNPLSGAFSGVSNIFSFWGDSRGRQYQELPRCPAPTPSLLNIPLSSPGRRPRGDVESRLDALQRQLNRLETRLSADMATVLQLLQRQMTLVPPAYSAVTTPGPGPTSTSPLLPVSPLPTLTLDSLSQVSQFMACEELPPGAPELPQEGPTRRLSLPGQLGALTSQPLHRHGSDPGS
Sequence of PI3Kγ (P48736 whole entry, species assumed): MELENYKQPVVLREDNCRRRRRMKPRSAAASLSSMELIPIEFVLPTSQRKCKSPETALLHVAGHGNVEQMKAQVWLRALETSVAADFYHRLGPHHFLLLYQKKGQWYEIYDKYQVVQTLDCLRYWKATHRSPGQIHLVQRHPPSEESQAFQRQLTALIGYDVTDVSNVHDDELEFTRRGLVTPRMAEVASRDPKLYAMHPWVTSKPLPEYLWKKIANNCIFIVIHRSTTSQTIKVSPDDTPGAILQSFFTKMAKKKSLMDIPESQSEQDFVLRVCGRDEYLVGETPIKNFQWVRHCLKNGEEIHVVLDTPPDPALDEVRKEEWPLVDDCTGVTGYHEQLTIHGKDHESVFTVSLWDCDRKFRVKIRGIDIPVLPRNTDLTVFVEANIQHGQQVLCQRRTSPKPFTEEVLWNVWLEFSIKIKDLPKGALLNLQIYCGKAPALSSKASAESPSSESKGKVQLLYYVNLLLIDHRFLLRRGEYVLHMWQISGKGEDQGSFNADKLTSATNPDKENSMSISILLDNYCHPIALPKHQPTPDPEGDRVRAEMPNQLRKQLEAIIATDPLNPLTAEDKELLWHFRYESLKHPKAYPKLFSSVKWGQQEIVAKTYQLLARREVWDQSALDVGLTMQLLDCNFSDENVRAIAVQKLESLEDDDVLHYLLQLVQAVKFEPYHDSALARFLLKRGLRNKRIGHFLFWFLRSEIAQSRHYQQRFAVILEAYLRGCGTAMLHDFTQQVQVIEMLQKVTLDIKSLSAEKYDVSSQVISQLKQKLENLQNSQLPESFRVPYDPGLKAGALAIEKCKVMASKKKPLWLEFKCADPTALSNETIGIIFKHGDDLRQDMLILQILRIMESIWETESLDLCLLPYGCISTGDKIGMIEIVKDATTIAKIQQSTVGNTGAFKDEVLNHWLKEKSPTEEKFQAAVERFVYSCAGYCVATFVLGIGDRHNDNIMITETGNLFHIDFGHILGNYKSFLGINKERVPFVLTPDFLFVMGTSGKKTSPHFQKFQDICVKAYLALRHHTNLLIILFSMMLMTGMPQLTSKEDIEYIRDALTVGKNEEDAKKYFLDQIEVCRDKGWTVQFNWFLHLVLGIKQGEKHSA
T2 sequence (P08684 whole entry): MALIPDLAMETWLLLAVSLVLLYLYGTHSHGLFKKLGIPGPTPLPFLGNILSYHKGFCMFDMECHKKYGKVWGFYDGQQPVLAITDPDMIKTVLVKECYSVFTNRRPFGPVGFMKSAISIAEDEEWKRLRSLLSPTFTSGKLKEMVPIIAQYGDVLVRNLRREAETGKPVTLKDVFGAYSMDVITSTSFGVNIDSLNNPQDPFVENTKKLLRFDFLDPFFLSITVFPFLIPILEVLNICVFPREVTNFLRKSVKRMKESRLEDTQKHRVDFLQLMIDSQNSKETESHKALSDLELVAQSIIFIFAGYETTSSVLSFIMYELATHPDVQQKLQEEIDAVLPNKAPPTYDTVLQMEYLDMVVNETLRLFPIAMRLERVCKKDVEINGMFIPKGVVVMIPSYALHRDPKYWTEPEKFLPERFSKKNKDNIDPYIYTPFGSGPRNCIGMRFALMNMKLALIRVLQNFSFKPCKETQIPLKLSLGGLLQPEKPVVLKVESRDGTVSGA

Row | inhibition at 10 µM (PI3Kγ) [%] | IC50 at 15 min [1] [µM] | hLMS_ox(at 0.5 μM) % [2] [%] | SMILES | inhibition at 1 µM (AKT phosphorylation) [%] | inhibition at 10 min, 1 µM (hERG channel (IKr)) [%] | MBI (CYP3A4)
1 | 80 | > 20 | – | CC(C)NC(=O)c1ccccc1NC(=O)Nc1nc2c(s1)CN(c1cncc(C#N)c1)CC2 [Compound I-188] | 84 | 3.9 | –
2 | ≥ 95 | ≥ 10 | – | COc1nc(Cl)cc(N2CCc3nc(NC(=O)Nc4ccccc4C(=O)NC4CCOC4)sc3C2)n1 (centres unmarked) [Compound I-175] | 88 | 1.6 | –
3 | ≥ 95 | > 20 | 81.9 | COc1cc(C2CCc3nc(NC(=O)Nc4ccccc4C(=O)NC(C)C)sc3C2)nc(OC)n1 (centres unmarked) [Compound I-60] | – | 3.6 | –
4 | ≥ 95 | > 20 | 80.1 | COc1cc(N2CCc3nc(NC(=O)Nc4ccccc4C(=O)NC(C)C)sc3C2)cc(OC)n1 [Compound I-63] | – | 2.7 | –
5 | – | ≥ 10 | 83.4 | COc1cc(N2CCc3nc(NC(=O)Nc4ccccc4C(=O)NCC#N)sc3C2)nc(OC)n1 [Compound I-90] | – | – | (−) (When 3 μmol/L or less, the compound is shown as (−))
6 | ≥ 95 | ≥ 10 | 93.6 | COc1cc(N2CCc3nc(NC(=O)Nc4ccccc4C(=O)NCCC#N)sc3C2)nc(OC)n1 [Compound I-89] | – | – | (−) (When 3 μmol/L or less, the compound is shown as (−))
7 | ≥ 95 | ≥ 10 | 98 | Cc1cc(N2CCc3nc(NC(=O)Nc4ccccc4C(=O)NCC#N)sc3C2)nc(Cl)n1 [Compound I-172] | – | – | (−) (When 3 μmol/L or less, the compound is shown as (−))
8 | 71 | ≥ 10 | – | O=C(Nc1nc2c(s1)CN(c1cncc(C(F)(F)F)c1)CC2)Nc1ccccc1C(=O)NC(CO)CO [Compound I-173] | – | – | (−) (When 3 μmol/L or less, the compound is shown as (−))
9 | ≥ 95 | > 20 | – | CC(C)NC(=O)c1ccccc1NC(=O)Nc1nc2c(s1)CN(c1ccc(S(C)(=O)=O)cc1)CC2 [Compound I-204] | – | – | (−) (When 3 μmol/L or less, the compound is shown as (−))
10 | – | ≥ 10 | – | COc1nc(Cl)cc(N2CCc3nc(NC(=O)Nc4ccccc4C(=O)NC(C)C(F)(F)F)sc3C2)n1 (centres unmarked) [Compound I-176] | 83 | 0.4 | (−) (When 3 μmol/L or less, the compound is shown as (−))
11 | ≥ 95 | > 20 | 91.6 | COc1cc(N2CCc3nc(NC(=O)Nc4cn(C)nc4C(=O)NC(CO)CO)sc3C2)nc(OC)n1 [Compound I-170] | 80 | – | –
